Assay results: patent US20170209492A1, “SUBSET-OPTIMIZED CHIMERIC ANTIGEN RECEPTOR-CONTAINING T-CELLS” (NOVARTIS AG, priority 2014, published 2017)

Assays:
[1] = system: huCART19 cells co-cultured with NALM6 (Nalm-6); assay: CART proliferation in 4 day co-culture assay with RAD001; type: cell-based, human; details: for proliferation of huCART19 cells: 4 day co-culture
Experimental: To evaluate the functionality of CARTs, the T cells are thawed and counted, and viability is assessed by Cellometer. The number of CAR-positive cells in each culture is normalized using non-transduced T cells (UTD). The impact of RAD001 on CARTs was tested in titrations with RAD001, starting at 50 nM. The target cell line used in all co-culture experiments is NALM6 (Nalm-6), a human pre-B cell acute lymphoblastic leukemia (ALL) cell line expressing CD19 and transduced to express luciferase.
For measuring the proliferation of CARTs, T cells are cultured with target cells at a ratio of 1:1. The assay is run for 4 days, when cells are stained for CD3, CD4, CD8 and CAR expression. The number of T cells is assessed by flow cytometry using counting beads as reference.

NALM6-luc tumors = assay: NALM6-luc tumor growth with daily RAD001 dosing; type: in vivo, NSG mice; details: daily oral dosing of RAD001 alone, 0.3, 1, 3 and 10 mg/kg
Experimental: NALM6-luc cells: The NALM6 human acute lymphoblastic leukemia (ALL) cell line was developed from the peripheral blood of a patient with relapsed ALL. The cells were then tagged with firefly luciferase. These suspension cells grow in RPMI supplemented with 10% heat inactivated fetal bovine serum.
Mice: 6 week old NSG (NOD.Cg-PrkdcscidIl2rgtmlWj1/SzJ) mice were received from the Jackson Laboratory (stock number 005557).
(§1) Tumor implantation: NALM6-luc cells were grown and expanded in vitro in RPMI supplemented with 10% heat inactivated fetal bovine serum. The cells were then transferred to a 15 ml conical tube and washed twice with cold sterile PBS. NALM6-luc cells were then counted and resuspended at a concentration of 10×10^6 cells per milliliter of PBS. The cells were placed on ice and immediately (within one hour) implanted in the mice. NALM6-luc cells were injected intravenously via the tail vein in a 100 μl volume, for a total of 1×10^6 cells per mouse.
(§2) RAD001 dosing: A concentrated micro-emulsion of 50 mg equal to 1 mg RAD001 was formulated and then resuspended in D5W (dextrose 5% in water) at the time of dosing. Mice were orally dosed daily (via oral gavage) with 200 μl of the desired doses of RAD001.

[2] = pharmacokinetic analysis of RAD001 in blood; type: in vivo, NSG mice
Experimental: as §2
PK analysis: Mice were dosed daily with RAD001 starting 7 days post tumor implantation. Dosing groups were as follows: 0.3 mg/kg, 1 mg/kg, 3 mg/kg, and 10 mg/kg. Mice were bled on days 0 and 14 following the first and last dose of RAD001, at the following time points for PK analysis: 15 minutes, 30 minutes, 1 hour, 2 hours, 4 hours, 8 hours, 12 hours, and 24 hours.

huCAR19 CAR T cells = assay: in vivo proliferation of humanized CD19 CART cells with RAD001 dosing; set-up: species or system NSG mice
Experimental: as §1
CAR T cell dosing: Mice were administered 5×10^6 CAR T cells 7 days after tumor implantation. Cells were partially thawed in a 37 degree Celsius water bath and then completely thawed by the addition of 1 ml of cold sterile PBS to the tube containing the cells. The thawed cells were transferred to a 15 ml falcon tube and adjusted to a final volume of 10 mls with PBS. The cells were washed twice at 1000 rpm for 10 minutes each time and then counted on a hemocytometer. T cells were then resuspended at a concentration of 50×10^6 CAR T cells per ml of cold PBS and kept on ice until the mice were dosed. The mice were injected intravenously via the tail vein with 100 μl of the CAR T cells for a dose of 5×10^6 CAR T cells per mouse. Eight mice per group were treated either with 100 μl of PBS alone (PBS), or humanized CD19 CAR T cells.
as §2
Based on these doses, huCAR19 CAR T cells were dosed with and without RAD001 to determine the proliferative ability of these cells. The highest dose used was 3 mg/kg based on the levels of RAD001 in the blood 24 hours after dosing. As the concentration of RAD001 was above 10 nM 24 hours after the final dose of RAD001, several lower doses of RAD001 were used in the in vivo study with CAR T cells. The CAR T cells were dosed IV one day prior to the start of the daily oral RAD001 dosing. Mice were monitored via FACS for T cell expansion.

- concentration at 24 h ([2]; NSG, mouse, blood, lowest dose tested (0.3 mg/kg), oral, read-out: RAD001 concentration in the blood 24 hours after dosing): > 10 nM
- concentration of RAD001 24 hours after the final dose ([2]; after the final dose of RAD001): above 10 nM
- stability in the blood of tumor bearing mice ([2]; daily oral dosing): fairly stable
- RAD001 concentration in the blood 24 hours after dosing ([2]; day 14, lowest dose tested (0.3 mg/kg), oral): above 10 nm
Structure (SMILES): CO[C@H]1C[C@@H]2CC[C@@H](C)[C@@](O)(O2)C(=O)C(=O)N2CCCC[C@H]2C(=O)O[C@H]([C@H](C)C[C@@H]2CC[C@@H](OCCO)[C@H](OC)C2)CC(=O)[C@H](C)/C=C(\C)[C@@H](O)[C@@H](OC)C(=O)[C@H](C)C[C@H](C)/C=C/C=C/C=C/1C [RAD001, (1R,9S,12S,15R,16E,18R,19R,21R,23S,24E,26E,28E,30S,32S,35R)-1,18-dihydroxy-12-{(1R)-2-[(1S ,3R,4R)-4-(2-hydroxyethoxy)-3-methoxycyclohexyl]-1-methylethyl}-19,30-dimethoxy-15,17,21,23,29,35-hexamethyl-11,36-dioxa-4-aza-tricyclo[30.3.1.04,9]hexatriaconta-16,24,26,28-tetraene-2,3,10,14,20-pentaone]
- proliferation of huCART19 cells ([1]; 0.0032 nM RAD001): higher than observed without the addition of RAD001
- proliferation of huCART19 cells ([1]; 0.016 nM RAD001): higher than observed without the addition of RAD001
- proliferation of CAR-expressing, transduced T cells ([1]; low doses of RAD001, 4 days of co-culture): enhanced
- growth of NALM6-luc tumors (NALM6-luc tumors): did not have an impact
- CAR T cell proliferation in vivo (huCAR19 CAR T cells; RAD001 0.003 mg/kg daily, above the normal level of huCAR19 proliferation): enhancement
- proliferation of CD8+ CAR T cells in vivo (huCAR19 CAR T cells; lowest doses of RAD001): enhanced proliferation can be seen at early time points
- proliferation of the CAR T cells in vivo (huCAR19 CAR T cells; lowest doses of RAD001, daily oral, huCAR19 dosed IV): enhanced proliferation
- proliferation of CD4+ CAR T cells in vivo (huCAR19 CAR T cells; lowest doses of RAD001, compared with CD8+ CAR T cells): more evident and prolonged
